Key:
Ovary tumoral cell line = test: In vitro cytotoxic (antimitotic) activity on tumoral cell lines, ovary; assay type: cell-based
From the text: (§1) Taxol and colchicine are the comparison substances.
(§2) In vitro cytotoxic activity of some novel colchicine derivatives.

Colon tumoral cell line = test: In vitro cytotoxic (antimitotic) activity on tumoral cell lines, colon; assay type: cell-based
From the text: as §1, §2

Breast tumoral cell line = test: In vitro cytotoxic (antimitotic) activity on tumoral cell lines, breast; assay type: cell-based
From the text: as §1, §2

Lung tumoral cell line = test: In vitro cytotoxic (antimitotic) activity on tumoral cell lines, lung; assay type: cell-based
From the text: as §1, §2

resistant cell lines = test: cells; details: read-out: In vitro cytotoxic activity, IC50, Cell. resist.
From the text: as §1
Formulations for the parenteral, oral, transdermal, epicutaneous administrations can be conveniently prepared.

| SMILES | IC50 (Ovary tumoral cell line) | IC50 (Colon tumoral cell line) | IC50 (Breast tumoral cell line) | IC50 (Lung tumoral cell line) | IC50 (resistant cell lines) |
| --- | --- | --- | --- | --- | --- |
| COc1cc2c(c(OC)c1OC)-c1ccc(OC)c(=O)cc1[C@@H](NC(C)=O)CC2 [Colchicine, colchicine] | 5.3 nM | 3.9 nM | 4.4 nM | 16 nM | 112 nM |
| COc1c(OC(C)C)cc2c(c1OC)-c1ccc(SC)c(=O)cc1[C@@H](NC(=O)C(F)(F)F)CC2 [Compound IIZ, N-desacetyl-N-trifluoroacetyl-3-O-demethyl-3-O-isopropyl-thiocolchicine] | 9.4 nM | 1.8 nM | 5 nM | 19 nM | 11 nM |
| COc1cc2c(c(OC)c1OC)-c1ccc(SC)c(=O)cc1[C@@H](NC(=O)[C@@H](NC(=O)C(F)(F)F)c1ccccc1)CC2 [Compound IVZ, N-(N-trifluoroacetyl-α-phenylglycyl)-desacetylthiocolchicine] | 6.1 nM | 2.2 nM | 4.1 nM | 12 nM | 7 nM |
| COc1c(OC2CCCC2)cc2c(c1OC)-c1ccc(SC)c(=O)cc1[C@@H](NC(=O)C(F)(F)F)CC2 [Compound IZ, N-desacetyl-N-trifluoroacetyl-3-O-demethyl-3-O-cyclopentyl-thiocolchicine] | 4.2 nM | 2.6 nM | 6.2 nM | 8 nM | 26 nM |
| CC(=O)O[C@H]1C(=O)[C@@]2(C)[C@H]([C@H](OC(=O)c3ccccc3)[C@]3(O)C[C@H](OC(=O)[C@H](O)[C@@H](NC(=O)c4ccccc4)c4ccccc4)C(C)=C1C3(C)C)[C@]1(OC(C)=O)CO[C@@H]1C[C@@H]2O [Taxol, reference compound] | 6.1 nM | 3.5 nM | 3.2 nM | 1.7 nM | 299 nM |
